According to patent US11866414B2, “Substituted heterocyclic compounds” (BRISTOL-MYERS SQUIBB COMPANY, priority 2021, dated 2024):
Like-named read-outs stand apart in the source and are kept apart here.

What was measured:
in vitro = conditions: human, Caco-2, pH 7.4
[1] = Brain penetration in vivo assay (brain and plasma exposure); conditions: C57BL6, brain / plasma, 10 mg/kg, mouse, 10 mpk, po, read-out: Ratio of exposure in brain to plasma (mouse) (1 h, 10 mpk, po)
Procedure: Brain Penetration In Vivo Assay
A pharmacokinetic study was performed using C57BL6 wild-type mice (n=3 per experiment) to determine brain and plasma exposure of compounds of the invention. The compound was administered orally in a solution of 5% ETHANOL: 90% PEG 300; 5% TPGS at 5 mL/kg for a final concentration of 10 mg/kg. Nice were euthanized 1 hour post-dose and plasma and brain were collected and frozen for analysis. Brain tissues were homogenized in a 1:1 volume of blank C57BL6 mouse plasma. Concentrations of the compound in plasma and brain homogenate were determined by LC-MS analysis.

[2] = system: IFNα-induced STAT phosphorylation (pSTAT5); experiment: IFNα-induced STAT phosphorylation in human whole blood; format: cell-based; conditions: 1 h compound, 1000 U/mL IFNα A/D 15 min, CD3 positive population, read-out: Human Whole blood IFNa pSTAT5 IC50

Structure (SMILES) | Papp A→B at 2 h, 3 μM (in vitro) | efflux ratio at 2 h, 3 μM (in vitro) | Kp at 1 h [1] | IC50 [2] | Kp at 1 h ([1]; Table 4, comparison of CNS penetration with prior art)
[2H]C([2H])([2H])NC(=O)c1nnc(NC(=O)C2CC2)cc1Nc1cc(F)cc(-c2cnn(C)n2)c1OC [Example 4, 6-cyclopropaneamido-4-{[5-fluoro-2-methoxy-3-(2-methyl-2H-1,2,3-triazol-4-yl)phenyl]amino}-N—(^2H3)methylpyridazine-3-carboxamide] | 32.7 ×10⁻⁶ cm/s | 0.6 | 0.8 | 290 nM | 
[2H]C([2H])([2H])NC(=O)c1nnc(Nc2ccc(OC)nn2)cc1Nc1cccc(-c2cnn(C)n2)c1OC [Example 5, 4-{[2-methoxy-3-(2-methyl-2H-1,2,3-triazol-4-yl)phenyl]amino}-6-[(6-methoxypyridazin-3-yl)amino]-N—(^2H3)methylpyridazine-3-carboxamide] | 20.9 ×10⁻⁶ cm/s | 0.9 | 0.2 | 60 nM | 
[2H]C([2H])([2H])NC(=O)c1nnc(NC(=O)[C@@H]2C[C@@H]2F)cc1Nc1nccc(-c2cnn(C)n2)c1OC [Example 37, 6-((1S,2S)-2-fluorocyclopropane-1-carboxamido)-4-((3-methoxy-4-(2-methyl-2H-1,2,3-triazol-4-yl)pyridin-2-yl)amino)-N-(methyl-d3)pyridazine-3-carboxamide] | 49.4 ×10⁻⁶ cm/s | 0.9 | 0.1 | 20 nM | 
[2H]C([2H])([2H])NC(=O)c1nnc(NC(=O)C2CC2)cc1Nc1nccc(-c2cnn(C)n2)c1OC [Example 36, 6-(cyclopropanecarboxamido)-4-((3-methoxy-4-(2-methyl-2H-1,2,3-triazol-4-yl)pyridin-2-yl)amino)-N-(methyl-d3)pyridazine-3-carboxamide] | 32.8 ×10⁻⁶ cm/s | 0.6 | 0.8 | 50 nM | 
[2H]C([2H])([2H])NC(=O)c1nnc(NC(=O)C2CC2)cc1Nc1cc(C)cc(-c2cnn(C3CC3)n2)c1OC [Example 9, 6-cyclopropaneamido-4-{[3-(2-cyclopropyl-2H-1,2,3-triazol-4-yl)-2-methoxy-5-methylphenyl]amino}-N—(^2H3)methylpyridazine-3-carboxamide] | 14 ×10⁻⁶ cm/s | 0.3 | 0.2 | 100 nM | 
[2H]C([2H])([2H])NC(=O)c1nnc(NC(=O)C2CC2)cc1Nc1cccc(-c2ncn(C3CC3)n2)c1OC [B, reference compound] |  |  |  |  | 0.02
[2H]C([2H])([2H])NC(=O)c1nnc(NC(=O)C2CC2)cc1Nc1cccc(-c2nn(C3CC3)nc2C)c1OC [Example 27, 6-(cyclopropanecarboxamido)-4-((3-(2-cyclopropyl-5-methyl-2H-1,2,3-triazol-4-yl)-2-methoxyphenyl)amino)-N-(methyl-d3)pyridazine-3-carboxamide] | 20.5 ×10⁻⁶ cm/s | 0.8 |  | 210 nM | 
[2H]C([2H])([2H])NC(=O)c1nnc(Nc2ccn(C)n2)cc1Nc1cccc(-c2cnn(C)n2)c1OC [Example 25, 4-((2-methoxy-3-(2-methyl-2H-1,2,3-triazol-4-yl)phenyl)amino)-N-(methyl-d3)-6-((1-methyl-1H-pyrazol-3-yl)amino)pyridazine-3-carboxamide] | 1.9 ×10⁻⁶ cm/s | 1.2 |  | 60 nM | 
[2H]C([2H])([2H])NC(=O)c1nnc(NC(=O)[C@@H]2C[C@@H]2F)cc1Nc1nccc(-c2cnn(C3CC3)n2)c1OC [Example 44, 4-((4-(2-cyclopropyl-2H-1,2,3-triazol-4-yl)-3-methoxypyridin-2-yl)amino)-6-((1S,2S)-2-fluorocyclopropane-1-carboxamido)-N-(methyl-d3)pyridazine-3-carboxamide] | 24.6 ×10⁻⁶ cm/s | 0.5 |  | 40 nM | 
